# Measurements reported in ChEMBL document CHEMBL1201862, “PubChem BioAssay data set” (2004).
#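 Growth conditions: 96-well plates. Treatment: test compound, 48 hours, 5 concentrations. Analysis: linear interpolation between bracketing concentrations; unreached endpoints set to highest concentration. GI50 marks 50% less growth.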 The source made the active and inactive calls. Cut-off read from the data, not from the text of the source: active = GI50 up to about 1.1 µM and inactive = higher.
# Legend:
# Test in all cases: NCI-60 cell line screen, 48 h
# [1] = test system: LOX IMVI
# [2] = test system: RPMI-8226
# [3] = test system: OVCAR-8
# [4] = test system: A549
# [5] = test system: HCC 2998
# [6] = test system: EKVX
# [7] = test system: HCT-15
# [8] = test system: SF-268
# [9] = test system: SK-MEL-28
# [10] = test system: SW-620
# [11] = test system: SF-295
# [12] = test system: KM12
# [13] = test system: IGROV-1
# [14] = test system: K562
# [15] = test system: HOP-62
# [16] = test system: ACHN
# [17] = test system: UACC-257
# [18] = test system: NCI-H460
# [19] = test system: SF-539
# [20] = test system: MOLT-4
# [21] = test system: Hs-578T
# [22] = test system: SK-MEL-2
# [23] = test system: M14
# [24] = test system: BT-549
# [25] = test system: HT-29
# [26] = test system: COLO 205
# [27] = test system: OVCAR-3
# [28] = test system: SN12C
# [29] = test system: U-251
# [30] = test system: HL-60
# [31] = test system: TK-10
# [32] = test system: OVCAR-4
# [33] = test system: UACC-62
# [34] = test system: SR
# [35] = test system: DU-145
# [36] = test system: Malme-3M
# [37] = test system: MDA-MB-231
# [38] = test system: SNB-19
# [39] = test system: NCI-H23
# [40] = test system: NCI-H226
# [41] = test system: MCF7
# [42] = test system: CCRF-CEM
# [43] = test system: SK-MEL-5
# [44] = test system: 786-0
# [45] = test system: NCI-H522
# [46] = test system: T47D
# [47] = test system: MDA-MB-435
# [48] = test system: NCI/ADR-RES
# [49] = test system: OVCAR-5
# [50] = test system: HCT-116
# [51] = test system: UO-31
# [52] = test system: MDA-N
# [53] = test system: SK-OV-3
# [54] = test system: SNB-75
# [55] = test system: PC-3
# [56] = test system: A498
# [57] = test system: RXF 393
# [58] = test system: CAKI-1
# [59] = test system: HOP-92
smiles,measurement,setting,value
[O-][S+](Nc1ccccc1)c1ccc(N2CCOCC2)cc1 (centres undefined),GI50,[1],71 µM (inactive)
same,GI50,[2],58.7 µM (inactive)
same,GI50,[3],> 100 µM (inactive)
same,GI50,[4],43.9 µM (inactive)
same,GI50,[5],91.2 µM (inactive)
same,GI50,[6],94.6 µM (inactive)
same,GI50,[7],13 µM
same,GI50,[8],15.4 µM (inactive)
same,GI50,[9],> 100 µM (inactive)
same,GI50,[10],30.1 µM (inactive)
same,GI50,[11],> 100 µM (inactive)
same,GI50,[12],23.6 µM (inactive)
same,GI50,[13],13.6 µM (inactive)
same,GI50,[14],27.3 µM (inactive)
same,GI50,[15],> 100 µM (inactive)
same,GI50,[16],65.8 µM (inactive)
same,GI50,[17],34.2 µM (inactive)
same,GI50,[18],42.6 µM (inactive)
same,GI50,[19],35.8 µM (inactive)
same,GI50,[20],44.7 µM (inactive)
same,GI50,[21],> 100 µM (inactive)
same,GI50,[22],> 100 µM (inactive)
same,GI50,[23],> 100 µM (inactive)
same,GI50,[24],6.82 µM (inactive)
same,GI50,[25],36.3 µM (inactive)
same,GI50,[26],59.6 µM (inactive)
same,GI50,[27],> 100 µM (inactive)
same,GI50,[28],> 100 µM (inactive)
same,GI50,[29],> 100 µM (inactive)
same,GI50,[30],53.8 µM (inactive)
same,GI50,[31],> 100 µM (inactive)
same,GI50,[32],> 100 µM (inactive)
same,GI50,[33],9.12 µM (inactive)
same,GI50,[34],60.3 µM (inactive)
same,GI50,[35],51.4 µM (inactive)
same,GI50,[36],36.4 µM (inactive)
same,GI50,[37],86.7 µM (inactive)
same,GI50,[38],> 100 µM (inactive)
same,GI50,[39],> 100 µM (inactive)
same,GI50,[40],> 100 µM (inactive)
same,GI50,[41],57.4 µM (inactive)
same,GI50,[42],54.2 µM (inactive)
same,GI50,[43],39.8 µM (inactive)
same,GI50,[44],88.9 µM (inactive)
same,GI50,[45],32.8 µM (inactive)
same,GI50,[46],13.7 µM (inactive)
same,GI50,[47],32.7 µM (inactive)
same,GI50,[48],51.9 µM (inactive)
same,GI50,[49],> 10 µM (inactive)
same,GI50,[50],21.2 µM (inactive)
same,GI50,[51],10.8 µM (inactive)
CC1(C)N=c2c(ncn2-c2ccccc2)=C(C(N)=O)N1,GI50,[1],> 100 µM (inactive)
same,GI50,[52],> 100 µM (inactive)
same,GI50,[2],> 100 µM (inactive)
same,GI50,[3],> 100 µM (inactive)
same,GI50,[4],> 100 µM (inactive)
same,GI50,[5],> 100 µM (inactive)
same,GI50,[53],> 100 µM (inactive)
same,GI50,[6],> 100 µM (inactive)
same,GI50,[7],> 100 µM
same,GI50,[8],> 100 µM (inactive)
same,GI50,[9],> 100 µM (inactive)
same,GI50,[10],> 100 µM (inactive)
same,GI50,[11],> 100 µM (inactive)
same,GI50,[12],> 100 µM (inactive)
same,GI50,[13],> 100 µM (inactive)
same,GI50,[14],> 100 µM (inactive)
same,GI50,[15],> 100 µM (inactive)
same,GI50,[16],> 100 µM (inactive)
same,GI50,[54],> 100 µM (inactive)
same,GI50,[17],> 100 µM (inactive)
same,GI50,[18],> 100 µM (inactive)
same,GI50,[19],> 100 µM (inactive)
same,GI50,[21],> 100 µM (inactive)
same,GI50,[55],> 100 µM (inactive)
same,GI50,[22],> 100 µM (inactive)
same,GI50,[23],> 100 µM (inactive)
same,GI50,[25],> 100 µM (inactive)
same,GI50,[26],> 100 µM (inactive)
same,GI50,[27],> 100 µM (inactive)
same,GI50,[56],> 100 µM (inactive)
same,GI50,[28],> 100 µM (inactive)
same,GI50,[29],> 100 µM (inactive)
same,GI50,[30],> 100 µM (inactive)
same,GI50,[31],> 100 µM (inactive)
same,GI50,[32],> 100 µM (inactive)
same,GI50,[57],> 100 µM (inactive)
same,GI50,[33],> 100 µM (inactive)
same,GI50,[34],> 100 µM (inactive)
same,GI50,[35],> 100 µM (inactive)
same,GI50,[36],> 100 µM (inactive)
same,GI50,[37],> 100 µM (inactive)
same,GI50,[38],> 100 µM (inactive)
same,GI50,[39],> 100 µM (inactive)
same,GI50,[40],> 100 µM (inactive)
same,GI50,[41],> 100 µM (inactive)
same,GI50,[58],> 100 µM (inactive)
same,GI50,[42],> 100 µM (inactive)
same,GI50,[43],> 100 µM (inactive)
same,GI50,[44],> 100 µM (inactive)
same,GI50,[45],> 100 µM (inactive)
same,GI50,[46],> 100 µM (inactive)
same,GI50,[47],> 100 µM (inactive)
same,GI50,[48],> 100 µM (inactive)
same,GI50,[49],> 100 µM (inactive)
same,GI50,[50],> 100 µM (inactive)
O=C(NCC(=O)N1CCCC1C(=O)OC(=O)C1CCCN1C(=O)CNC(=O)OCc1ccccc1)OCc1ccccc1 (centres undefined),GI50,[1],17.7 µM (inactive)
same,GI50,[52],25.3 µM (inactive)
same,GI50,[2],21.7 µM (inactive)
same,GI50,[3],41.4 µM (inactive)
same,GI50,[4],44.8 µM (inactive)
same,GI50,[5],32.7 µM (inactive)
same,GI50,[53],> 100 µM (inactive)
same,GI50,[6],42.8 µM (inactive)
same,GI50,[7],38.8 µM
same,GI50,[8],30.4 µM (inactive)
same,GI50,[9],28.4 µM (inactive)
same,GI50,[10],76.9 µM (inactive)
same,GI50,[11],22.1 µM (inactive)
same,GI50,[12],18.2 µM (inactive)
same,GI50,[13],33.8 µM (inactive)
same,GI50,[14],31 µM (inactive)
same,GI50,[15],26.2 µM (inactive)
same,GI50,[16],36.2 µM (inactive)
same,GI50,[54],14.9 µM (inactive)
same,GI50,[17],16.7 µM (inactive)
same,GI50,[18],33.1 µM (inactive)
same,GI50,[19],24.5 µM (inactive)
same,GI50,[20],16.8 µM (inactive)
same,GI50,[21],> 100 µM (inactive)
same,GI50,[55],35.8 µM (inactive)
same,GI50,[22],20.4 µM (inactive)
same,GI50,[23],17.7 µM (inactive)
same,GI50,[25],24.1 µM (inactive)
same,GI50,[26],18.7 µM (inactive)
same,GI50,[27],43.3 µM (inactive)
same,GI50,[56],73.1 µM (inactive)
same,GI50,[28],31.8 µM (inactive)
same,GI50,[29],41.8 µM (inactive)
same,GI50,[30],46.9 µM (inactive)
same,GI50,[31],17.3 µM (inactive)
same,GI50,[32],40.6 µM (inactive)
same,GI50,[57],24 µM (inactive)
same,GI50,[59],31 µM (inactive)
same,GI50,[33],14.7 µM (inactive)
same,GI50,[34],44.5 µM (inactive)
same,GI50,[35],52 µM (inactive)
same,GI50,[36],19.1 µM (inactive)
same,GI50,[37],21.1 µM (inactive)
same,GI50,[38],39.4 µM (inactive)
same,GI50,[39],40.9 µM (inactive)
same,GI50,[40],26.1 µM (inactive)
same,GI50,[41],21.1 µM (inactive)
same,GI50,[58],> 100 µM (inactive)
same,GI50,[42],35.9 µM (inactive)
same,GI50,[43],26.5 µM (inactive)
same,GI50,[44],47.6 µM (inactive)
same,GI50,[45],52.7 µM (inactive)
same,GI50,[46],44.9 µM (inactive)
same,GI50,[47],22.5 µM (inactive)
same,GI50,[48],> 100 µM (inactive)
same,GI50,[49],29.1 µM (inactive)
same,GI50,[50],32.9 µM (inactive)
same,GI50,[51],65.6 µM (inactive)
